The values below come from patent publication US20180298405A1, “METHODS AND COMPOSITIONS TO INCREASE HUMAN SOMATIC CELL NUCLEAR TRANSFER (SCNT) EFFICIENCY BY REMOVING HISTONE H3-LYSINE TRIMETHYLATION, AND DERIVATION OF HUMAN NT-ESC” (CHILDREN'S MEDICAL CENTER CORPORATION, priority 2015, published 2018).

Values joined by “and” are separate entries in the source; they are usually repeats but may differ in a detail not shown here. Identical values can stand only once.

This data set relates to human SCNT embryos. In words: Preimplantation development of KDM4A-assisted human SCNT embryos. The data set is classed as cell-based. Conditions: for embryos reaching the blastocyst stage: day 6; for embryos developed to the expanded blastocyst stage: day 7. The protocol:
All MII stage human oocytes with distinctive 1st polar bodies were enucleated under an inverted microscope equipped with a Poloscope (Oosight®, Cambridge Research & Instrumentation). The enucleation and nuclear donor cell fusion were carried out in the presence of caffeine (1.25 mM). For enucleation, oocytes were pre-incubated in Global HTF medium with Hepes (Life Global) containing 0.5 μg/ml cytochalasin B and caffeine (1.25 mM) for 5 minutes. Then, the spindle complex was removed using a PIEZO actuator (Primetech, Japan). Dermal fibroblast cells resuspended in a drop containing HVJ-E extract (Cosmo Bio, USA) were inserted into the perivitelline space of the enucleated oocytes. The reconstructed oocytes were kept in the manipulation medium containing caffeine (1.25 mM) until the cell fusion was confirmed, and then the reconstructed oocytes were transferred into Global medium 10% SPS, and incubated for 1-1.5 hours before activation. Activation was carried out by applying electropulses (2×50 μs DC pulses, 2.7 kV/cm) in 0.25M d-sorbitol buffer and 6-DMAP (2 mM, 4 hrs) as previously described (Tachibana et al., 2013). The activated embryos were transferred to Global 10% SPS medium supplemented with Trichostatin A (TSA, 10 nM, Sigma) for 12 hrs, then the embryos were transferred to Global 10% FBS without TSA and cultured for up to 7 days in an incubator with atmosphere of 6% CO2/5% O2/89% N2 at 37° C. The culture medium was changed on day 3.
For mRNA injection, the activated SCNT embryos were washed and cultured in Global 10% SPS for 1 hr before the KDM4A mRNA injection. Approximately 10 pl of KDM4A mRNA were injected into the SCNT embryos at 5 hours after activation in Hepes-HTF 10% SPS medium using a PIEZO actuator as described previously (Matoba et al., 2014). More details on donor cell preparation, mRNA preparation, RNA-seq and other procedures can be found in the Supplemental Experimental Procedures.
In vitro transcription was performed as described previously (Matoba et al., 2014). Briefly, full length human KDM4A/JHDM3A cDNA was cloned into a pcDNA3.1 plasmid containing poly(A)83 at the 3′ end of cloning site. The catalytic defective mutant form of KDM4A (H188A) was generated using PrimeSTAR mutagenesis kit (TAKARA # R045A). mRNA was synthesized using the mMESSAGE mMACHINE T7 Ultra Kit (Life technologies # AM1345). The synthesized mRNA was dissolved in nuclease-free water. The concentration of mRNA was measured by NanoDrop ND-1000 spectrophotometer (NanoDrop Technologies). Aliquots of mRNA were stored at −80° C. until use.
Ovarian stimulation was carried out as described previously (Chung et al., 2014). Briefly, a combination of human recombinant follicle-stimulating hormone (rFSH, 225-3001U, Merck) and human menopausal gonadotropin (Menopur 751U, Ferring) were used to stimulate ovary for 9-11 days with GnRH antagonist (Ganirelix acetate, Merck) suppression. Lupron 4 mg was used to mimic the LH surge when 1 or 2 follicles reached 18 mm in diameter. All medications were administered through subcutaneous injections. Transvaginal oocyte retrieval was performed approximately 36 hours after the Lupron injection. The collected COCs were denuded with 5080 IU/ml hyaluronidase (Sigma-Aldrich) within 1-2 hours after retrieval. Then, they were kept in Global medium supplemented with 10% serum protein supplement (SPS; Cooper Surgical) (IVF Online) until use.
The procedures for somatic nuclear donor cell preparation are essentially the same as previously described (Chung et al., 2014). Briefly, the skin explant was mechanically minced and treated with collagenase (type I, 200 unit/ml, Worthington-biochem) in DMEM supplemented with 10 μg/ml penicillin-streptomycin solution to dissociate the skin tissue. […]

The mark [1] stands for this setting: pooled four oocyte donors, per 2-cell.
The mark [2] stands for this setting: pooled four oocyte donors, per 2-cell, listed as KDM4A.

On to “KDM4A mRNA: in vitro transcribed mRNA of full length human KDM4A/JHDM3A cDNA, an H3K9me3 demethylase (SEQ ID NO: 1)”, for which the “oocyte donors whose oocytes supported blastocyst formation” value (four oocyte donors tested, TSA present) is recorded as “all four donors tested supported blastocyst formation”. Also, under setting [1], the “embryos reaching the blastocyst stage” value is 26.8% and 27%; the “embryos developed to the expanded blastocyst stage” value is on record as 14.3%; the “developmental rate to 8-cell stage” value is reported as 71.4%; the “developmental rate to morula stage” value is 32%. Also, under setting [2], the “embryos reaching the blastocyst stage” value was found to be 26.8%; the “embryos developed to the expanded blastocyst stage” value was 14% and 14.3%; the “developmental rate to morula stage” value was 32.1%. Also, under “pooled oocytes of four donors, AMD patient fibroblast donors, mRNA injected 5 h after activation, per 1-cell”, the “cleavage efficiency to form 2-cell embryos” value came out at 88.9%. Besides, the “increase in hSCNT embryos developing into blastocysts” value (versus control hSCNT embryos (4.2%)) is given as “greater than 20%”. For the same substance, the “increase in embryos reaching expanded blastocyst stage” value (versus non-treated human SCNT embryos (0%)) is reported as 14%.
